A melting point compilation (Tetko et al.; mined from patent text by program, amines drawn as free bases though some values may be those of a salt)

Row | melting point [°C] | Compound
1 | 107 to 112 | CCOC(=O)C1=C(COCC2(C)CO2)NC(C)=C(C(=O)OC)C1c1cccc(Cl)c1Cl (centres undefined)
2 | 192 | CS(=O)(=O)C(=C1CN(C(c2ccccc2)c2ccccc2)C1)c1cc(C(F)(F)F)cc(C(F)(F)F)c1
3 | 116 to 119 | Cc1cc(C2=CCN=C(CCCC(O)c3ccc(F)cc3)C2)on1 (centres undefined)
4 | 173 to 175 | CS/C(NC(=O)c1ccc(SC)cc1)=C(\C#N)C(=O)Nc1ccc(C)cc1
5 | 145 to 147 | CON1C(C)(C)CC(OC(=O)N=NC(=O)OC2CC(C)(C)N(OC)C(C)(C)C2)CC1(C)C
6 | 173 to 175 | CC(C)CC(NC(=O)Cc1ccc(NC(=O)Nc2ccccc2Cl)cc1)c1ncc(CCC(=O)O)s1 (centres undefined)
7 | 101 | COC(=O)C(=CN(C)C)N(C)c1cccc(-c2ccc(Cl)cc2)n1
8 | 182 to 185 | CCC(=C(c1ccccc1)c1ccc(C=CC(N)=NO)cc1)c1ccccc1
9 | 256 | COc1cc(C)cc(-c2n[nH]cc2-c2cc(NC[C@H](C)O)nc(Cl)n2)c1
10 | 162 to 164 | COc1ccc2c(c1)C(c1ccc(OCCN3CCCCC3)cc1)c1c-2ccc2cc(OC)ccc12 (centres undefined)
11 | 299 to 301 | NC(=O)c1nc(-c2cccc(O)c2)nc2c1[nH]c(=O)n2[C@H]1CC[C@H](N)CC1
12 | 68 to 73 | O=C[C@H](OCc1ccccc1)[C@@H](OCc1ccccc1)[C@@H](O)COCc1ccccc1
13 | 68 to 69 | Cc1oc(-c2ccccc2)nc1COc1ccc(CON)cc1
14 | 98 to 100 | COc1cccc(OC2COc3ccc(OCc4ccccc4)cc3C2=O)c1 (centres undefined)
15 | 182 to 183 | Cc1cc(-c2sc(N3CCN(Cc4ccc(C(=O)N5CCCCC5)cc4)C3=O)nc2C)[nH]n1
16 | 259 to 260 | Cc1cc2c(s1)Nc1ccccc1NC2=S
17 | 181 to 182 | Cc1ccc(N2CCOCC2)c(NC(N)=S)c1
18 | 195 to 196 | CCCn1cc(C(=O)OCC)c(=O)c2cc(CN3CCOCC3)oc21
19 | 123 to 127 | CCOC(=O)c1c(SCOC)nc2cc(F)c(F)cc2c1O
20 | 130 to 133 | CCN(CC)CCOc1ccc(-c2oc3ccccc3c2C(=O)c2cc(C)c(OC)c(C)c2)cc1
21 | 114 to 115 | CC(F)c1ncnc(NCc2ccc(C(C)(C)C)cc2)c1I (centres undefined)
22 | 150 to 153 | COc1cc(OC)c(C(=O)CCCCCl)cc1NS(=O)(=O)c1ccc(C(F)(F)F)cc1
23 | 121 to 123 | CC1CCC(C)(C)C2=C1CC(O)C(C)(O)C2 (centres undefined)
24 | 70 to 73 | COC1CCCNC(=O)C1 (centres undefined)

Row | melting point [°C] | Compound
25 | 147 to 149 | Cc1nnc2ccc(-c3ccccc3F)nn12
26 | 112 to 113 | CC(C)(C)CC(C)(C)c1ccc(OCCOCCO)c(O)c1
27 | 157 to 158 | O=c1[nH]c(=O)n(C2CC(OCc3ccccc3)C(CO)O2)cc1C(F)(F)F (centres undefined)
28 | 153 to 155 | CCC(Oc1ccc(F)cc1F)C(=O)OC1CC(O)C=C2C=CC(C)C(CCC3CC(O)CC(=O)O3)C21 (mixture of isomers)
29 | 99 to 101 | COc1cc(N)c(Cl)cc1C(=O)NC[C@H]1CCN(CCCCCC(=O)c2ccccc2)C[C@H]1OC (relative stereo)
30 | 144 to 145 | Cc1cnc(CCc2ccccc2)n2c1c(CCCl)c1ccccc12
31 | 73 to 76 | CCOC(=N)C(O)c1sccc1C (centres undefined)
32 | 132 to 135 | O=C1NC(=S)SC1=Cc1c(F)c(F)c(F)c(F)c1F
33 | 72 | O=C(OCc1ccccc1)N1CCSC1=S
34 | 157 to 159 | CS(=O)(=O)c1ccc(-c2ncccc2C(=O)c2cccc(F)c2)cc1
35 | 173 | CCCC(=O)Nc1cc(CNc2ccccc2C(=O)Nc2cc3ccccc3cn2)ccn1
36 | 126 to 127 | Cc1cc(-c2cc3cc(OCCNC[C@H](O)c4cccc(C(F)(F)F)c4)ccc3o2)no1
37 | 275 to 277 | O=C(O)c1cccc2c(Cl)c3ccccc3cc12
38 | > 300 | CCCn1cc2c(C3C(=O)Nc4ccc(Br)cc43)nc(NCc3ccncc3)nc2n1 (centres undefined)
39 | 173 to 175 | CC(=O)Oc1ccc2c(c1)CCC1C2CCC2(C)C1CC(O)C2N(C)C (centres undefined)
40 | 148 to 152 | CS(=O)c1ncccc1C(=O)c1cnoc1C1CC1 (centres undefined)
41 | 81 to 82 | CCCOc1ccc(-c2scc(-c3ccccc3Cl)c2CC(=O)OC)cc1
42 | 141 to 142 | CC(C)(Oc1cccc(OCCCc2cn(-c3ccc(C(F)(F)F)cn3)nc2-c2ccccc2)c1)C(=O)O
43 | 164 to 165 | CCCCCCCc1ccc(CC2C=CC(Oc3ccc(C(=O)O)o3)=C3N=C4CCCCC4=C32)cc1 (centres undefined)
44 | 238 | CC(=O)Nc1ccc(OC2SCC(O)C(O)C2O)cc1 (centres undefined)
45 | 138 to 139 | COc1ccc2[nH]cc(CC#N)c2c1Cl
46 | 75 to 76 | COC(=O)Nc1ccc(OC(=O)OC)cc1
47 | 102 to 105 | COc1ccc(-c2nc(C(=O)O)cn2-c2ccc(OC)cc2)cc1
48 | 81 | COc1ccc(CN2C(=O)C(C)(c3cc(COCCN4CCOCC4)ccc3Cl)c3cc(Cl)ccc32)c(OC)c1 (centres undefined)

Row | melting point [°C] | Compound
49 | 89 to 92 | O=C1OC(O)(c2ccccc2)C2(Cl)CCCCC12 (centres undefined)
50 | 77 to 78 | CC(C)(C)OC(=O)[C@H](CSSC[C@H](NC(=O)OCc1ccccc1)C(=O)OC(C)(C)C)NC(=O)OCc1ccccc1
51 | 252 to 253 | CN1CCN(c2ccc(C(=O)O)cc2S(=O)(=O)Nc2ccccc2)CC1
52 | 175 | CCOC(=O)COc1cccc(-c2nnc(Nc3cccc(Br)c3)s2)c1
53 | 222 to 226 | Nc1ncc(CN2CCN(c3cccc(Cl)c3)CC2)c(N)n1
54 | 110 to 112 | C=C(C)CCOc1c(-c2ccc(S(C)(=O)=O)cc2)cnn(-c2cccc(Cl)c2)c1=O
55 | 152 to 154 | CCSc1ccc(-c2cnccn2)c2c1C(=O)CC(C)C2 (centres undefined)
56 | 84 to 86 | COC(=O)Cc1ccc(OCCN2CCN(c3cc(Cl)nnc3Cl)CC2)cc1
57 | 300 | Cc1nc(O)c(C)c(O)n1
58 | 152 | O=C(O)Cc1cccc(NC(=O)NCC(=O)N2[C@@H](c3ccccc3)CC[C@H]2c2ccccc2)c1
59 | 168 | Cc1cccc(CC(N)(CF)C(=O)O)c1O (centres undefined)
60 | 222 to 224 | CN1C(C(=O)Nc2ccccn2)=C(O)c2sc3ccccc3c2S1(=O)=O
61 | 148 | Cc1c(Cl)c(C(C)(C)C)c(Cl)c(C)c1S(=O)(=O)Cl
62 | 48 to 49 | CCOC(=O)c1cnn(-c2ccc(F)cc2)c1C
63 | 111 to 115 | CCOC(=O)C1=Cc2cc(N)ccc2OC1C(F)(F)F (centres undefined)
64 | 127 to 128 | CCOC(=O)Cc1nc(-c2ccc(Cl)cc2)oc1-c1ccsc1
65 | 221 to 223 | CC(C)n1nc(-c2c(-c3ccccc3)nc(N)nc2N2CCCCC2)ccc1=O
66 | 174 | C[C@H](NC(=O)OC(C)(C)C)c1nc2c(C(F)(F)F)cccc2c(=O)o1
67 | 347 to 348 | O=c1[nH]c2cc(Cl)c(Cl)c([N+](=O)[O-])c2[nH]c1=O
68 | 242 to 244 | CCSc1nc2c(cc1F)c(=O)c(C(=O)O)cn2C1CC1
69 | 194 | NC(=O)C1CCN(c2cccc3c2OCCO3)CC1
70 | 24 to 25 | CCOC(=O)c1c(C(F)(F)F)nc(C(F)F)c(C(=O)OC)c1Cl
71 | 120 to 122 | Cc1ccc(CNC(=O)C2=C3N(CCC2=O)c2ccccc2N3CCN(C)C)cc1
72 | 157 to 160 | CCOC(=O)C(=O)Nc1c([N+](=O)[O-])sc2ccc(Br)cc12

Row | melting point [°C] | Compound
73 | 193 to 196 | CCCn1c(COC)nc2c(N)nc3ccc(OCCCN4CCOCC4)cc3c21
74 | 203 to 204 | COc1nc(N)c2c(OC)c(OC)cc(Cl)c2n1
75 | 150 to 152 | Cn1nc(C(F)(F)F)n(-c2ccc(O)cc2)c1=S
76 | 190 to 191 | CCN(CC)S(=O)(=O)c1cc(-n2c(=O)cc(C(F)(F)F)n(C)c2=O)c(F)cc1Cl
77 | 144 to 145 | O=C(O)Cc1cccc(OCc2ccc3oc([N+](=O)[O-])c(-c4ccccc4)c3c2)c1
78 | 228 | Cc1nc(-c2cccc(C(=O)N[C@H]3CC[C@H](CCN4CCN(c5nccc6c5OCC6)CC4)CC3)c2)no1
79 | 268 to 270 | CC(C)Oc1ccc(-n2c(-c3ccc(C(=O)O)cc3)c(C(=O)O)c3cc(Oc4ccc(C(F)(F)F)cc4)ccc32)cc1
80 | 143 to 144 | CC(=Nc1ccccc1)NC(=S)NCc1cccnc1
81 | 45 to 45.6 | CCC(CC)N(OCc1ccccc1)C(=O)Nc1ccccc1
82 | 54 to 55.5 | N#CCC1COc2ccccc2C1 (centres undefined)
83 | 193 to 195 | CC(=O)N1CCc2cc(N)cnc21
84 | 130 to 131 | CC(C)Nc1cccnc1N(C)CCOC(=O)c1cc2ccccc2[nH]1
85 | 160 to 161 | COC(=O)c1ccc(Cc2cn(C)c3ccc(CCNC(=O)N4CCOCC4)cc23)c(OC)c1
86 | 106 to 109 | Cn1c(=O)c2c(ncn2CCCCC(=O)CBr)n(C)c1=O
87 | 188 | CC(C)Cc1ccc2c(c1O)C(=O)c1ccc(CC(C)C)c(O)c1C2=O
88 | 123 to 125 | CC(=O)Oc1cc2c(nc1C)C(=O)OC2=O
89 | 164 to 165 | COc1cc(COc2nn(-c3ccccc3)cc2C=O)ccc1OCc1nc(-c2ccccc2)sc1C
90 | 84.5 to 87 | Cc1cccc2c1nc(COc1ccc(Cl)cc1)n2CCC(C)CNCc1ccccc1 (racemic)
91 | 86 to 87 | COc1ccc(C[C@H](NC(=O)OCc2ccccc2)[C@H]2CO2)cc1
92 | 232 to 233 | Cc1[nH]c(=O)[nH]c1C(=O)CC(C)C
93 | 196 to 197 | CC(C)(O)C(O)c1ccc(-c2ccc(/C(=C/C3CCOCC3)c3ccc(S(=O)(=O)C4CC4)cc3)[nH]2)nc1 (centres undefined)
94 | 217 | COc1ccc(-c2cc3ccccc3[nH]2)cc1O
95 | 76 to 78 | CC(C)(C)OC(=O)NCCCCC/C=C/C(=O)O
96 | 99.2 | CN(C)C(=O)c1ccc(N2CCN(Cc3cnc4c(c3)NC(=O)[C@@H]3CCCN43)CC2)cc1

Row | Compound | melting point [°C]
97 | Cc1ccc(S(=O)(=O)OCCN2CN(C)C(=S)N(c3ccc(C)cc3C)C2)cc1 | 82 to 85
98 | Cc1cc2c(cc1O)C(C)(C)CC1(CC(C)(C)c3cc(OCC(N)=O)c(C)cc3O1)O2 (centres undefined) | 220 to 221
99 | C[C@@H]1C(=O)N(c2ccc(C#N)c(C(F)(F)F)c2)[C@@H](C)[C@H]1O | 82 to 85
